How the values were obtained:
[1] = test system: NK cells; assay: NK cell degranulation (LAMP-1 staining) upon anti-NK1.1 stimulation; type: cell-based, mouse; conditions: PGE2 pre-treatment 16 h
Protocol: (§1) For the isolation of mouse NK cells, the spleen was excised from mice and passed through a steel sieve. Red blood cells were lysed by incubating the cells with ammonium chloride potassium buffer for 2 min. Following filtration through a 70 μm cell strainer, CD49b^+ leukocytes were purified by immunomagnetic separation to enrich for CD49b^+ NK cells. Th cells were stained with anti-CD49b FITC, anti-CD3ε PerCP/Cy5.5, anti-CD19 PE/eF610 and CD64 PE/Cy7 for 15 min at 4° C. and NK cells, phenotypically identified as CD49b^+CD3ε^−CD19^−CD64^− cells, were FACS-sorted using a SH800 Cell Sorter. After isolation, NK cells were cultured in low doses of IL2 and IL15/IL15Ra for five days to rest the cells and generate functional NK cells.
(§2) Murine or human NK cells or CD8^+ T cells were treated with 1-100 ng/ml synthetic PGE2 or medium as control for 16 h at 37° C. For experiments with tumor factors (TF), cells were incubated in a 1:1 mixture of complete RPMI medium with TF-containing conditioned medium from cancer cells. For the inhibitor studies, cells were first incubated with single EP receptor inhibitors (EP1-EP4) or inhibitor combinations at a concentration of 5 μM for 30 min, before adding 100 ng/ml PGE2 for 16 h at 37° C. For the RNA and ATAC sequencing approach, NK cells were only pre-treated for 1 h with PGE2 and then stimulated (as described below) for further 4 h. […]

[2] = test system: NK cells; assay: Granzyme B expression in NK cells by flow cytometry; type: cell-based, mouse; conditions: untreated vs PGE2-treated NK cells
Protocol: as §1
Murine or human NK cells or CD8^+ T cells were treated with 1-100 ng/ml synthetic PGE2 or medium as control for 16 h at 37° C. For experiments with tumor factors (TF), cells were incubated in a 1:1 mixture of complete RPMI medium with TF-containing conditioned medium from cancer cells. […]
(§3) For flow cytometric analysis, cells were resuspended in staining buffer containing antibodies for surface molecules and incubated for 15 min. […] Intracellular staining of cytokines (including IFNγ and TNF) was performed in permeabilization buffer and cells were subsequently analyzed by flow cytometry. […]

[3] = test system: human CD8^+ T cells; assay: Human CD8^+ T cell expansion after anti-CD3/CD28+IL-12 stimulation; type: cell-based; conditions: PGE2 16 h, expansion 72 h later
Source text: (§4) Human NK cells and CD8+ T cells were isolated from blood of healthy, voluntary donors after they gave written and informed consent. Blood was mixed with PBS and loaded on Pancoll to isolate peripheral blood mononuclear cells (PBMCs) through centrifugation. NK cells were then isolated by negative selection using the Untouched Human NK Cell Isolation Kit (ThermoFisher). CD8+ T cells were then isolated by negative selection using the Untouched Human CD8+ T Cell Isolation Kit (Miltenyi).
(§5) Murine or human NK cells or CD8^+ T cells were treated with 1-100 ng/ml synthetic PGE2 or medium as control for 16 h at 37° C. For experiments with tumor factors (TF), cells were incubated in a 1:1 mixture of complete RPMI medium with TF-containing conditioned medium from cancer cells. For the inhibitor studies, cells were first incubated with single EP receptor inhibitors (EP1-EP4) or inhibitor combinations at a concentration of 5 μM for 30 min, before adding 100 ng/ml PGE2 for 16 h at 37° C. For the RNA and ATAC sequencing approach, NK cells were only pre-treated for 1 h with PGE2 and then stimulated (as described below) for further 4 h.
(§6) To assess T cell differentiation and expansion, CD8^+ T cells were stimulated with anti-CD3/CD28 microbeads plus Interleukin-12 (10 ng/ml), mimicking their activation in metastasis or tumor tissue, and cell numbers were quantified 72 h later by flow cytometry.

[4] = test system: BRAF^V600E tumor cells; assay: NK cell cytotoxicity assay (xCelligence impedance); type: cell-based, mouse; conditions: PGE2-treated NK cells co-cultured with tumor cells
Protocol: Measurement of the dynamics of NK cell cytotoxicity against BRAF^V600E tumor cells over time was performed with the impedance-based technology using an xCelligence RTCA MP device (ACEA Biosciences). The xCELLigence RTCA system measures changes in impedance generated by adherence of cells to electrodes on the bottom of the wells of E-Plates and calculates a parameter called Cell Index. For the assays, tumor cells were seeded in 96-well E-plates. After tumor cells reached confluency and a maximum cell index, in vitro cultured NK cells were added in different effector-to-target ratios. Killing was measured by declining cell index values. Percentage of specific cytotoxicity was finally calculated to the index values from tumor cells alone.

[5] = test system: mouse CD8^+ T cells; assay: Mouse CD8^+ T cell expansion after anti-CD3/CD28+IL-12 stimulation; type: cell-based; conditions: PGE2 16 h, expansion 72 h later
Protocol: For the isolation of mouse CD8^+ T cells, the spleen was excised from mice and passed through a steel sieve. Red blood cells were lysed by incubating the cells with ammonium chloride potassium buffer for 2 min. Following filtration through a 70 μm cell strainer, CD8^+ T cells were purified by immunomagnetic separation using anti-CD8 microbeads. After isolation, CD8^+ T cells were cultured with low dose IL2 and CD3/CD28 stimulatory beads to generate effector-like CD8+ T cells for in vitro assays.
as §2, with “C.” for “C. For the RNA and ATAC sequencing approach, NK cells were only pre-treated for 1 h with PGE2 and then stimulated (as described below) for further 4 h.”
as §6

[6] = test system: human NK cells; assay: Human NK cell cytokine production upon stimulation with K562 (flow cytometry); type: cell-based; conditions: PGE2 16 h
Source text: as §4
as §2, with “C.” for “C. For the RNA and ATAC sequencing approach, NK cells were only pre-treated for 1 h with PGE2 and then stimulated (as described below) for further 4 h.”
as §3

[7] = test system: NK cells; assay: Cytokine release assay of mouse NK cells upon anti-NK1.1 stimulation (ELISA, multiplex); type: cell-based
Protocol: as §1
as §5, with “For” for “Murine or human NK cells or CD8^+ T cells were treated with 1-100 ng/ml synthetic PGE2 or medium as control for 16 h at 37° C. For”
To assess cytokine and chemokine production and degranulation, NK cells were stimulated with plate-bound anti-NK1.1 (PK136), mimicking their activation in metastasis. Human NK cells were activated by incubation with the human […] cell line K562. For analysis of cytokine and chemokine production, Brefeldin A was added 1 h after stimulation to block intracellular protein transport processes. 3 h later, cells were stained for flow cytometric analysis. For analysis of degranulation, stimulation was done in presence of anti-LAMP-1 antibody, and Monensin was added 1 h later to prevent acidification of endolytic vesicles.
To assess the production of cytokines in cell culture supernatants, NK cells were stimulated for 16 h and cell-free supernatants were harvested and stored at −20° C. until further use. Cytokine concentrations in the culture supernatants were measured by enzyme-linked immunosorbent assays (ELISA) or a multiplex cytokine assay (Bio-Plex Pro Mouse Cytokine 23-plex).

[8] = anti-NK1.1 stimulation in presence of PGE2

CCCCC[C@H](O)/C=C/[C@H]1[C@H](O)CC(=O)[C@@H]1C/C=C\CCCC(=O)O [PGE2, prostaglandin E2]
degranulation (LAMP-1 staining) of NK cells [1]: only slightly reduced | granzyme B levels in NK cells [2]: unaffected | expansion of human CD8^+ T cells upon stimulation [3]: Identical findings | NK cell mediated killing of tumor cells [4]: effectively eliminate the tumor cells | expansion of mouse CD8^+ T cells upon stimulation [5]: strongly impaired | cytokine and chemokine production (IFNγ, TNF, XCL1) by human NK cells [6]: impaired the cytokine and chemokine production | XCL1 secretion after transient PGE2 treatment ([7]; PGE2 24 h, then removed for 24 h before anti-NK1.1 stimulation): strong inhibitory effects | IFNγ release by NK cells [7, 8]: markedly reduced in a dose-dependent manner | XCL1 release by NK cells [7, 8]: markedly reduced in a dose-dependent manner | secretion of other effector cytokines, chemokines and growth factors by NK cells ([7]; upon stimulation, multiplex assay): diminished the secretion

Reference: patent US20250161446A1, “MODIFIED IMMUNE CELLS FOR TREATING AND/OR PREVENTING METASTASIS” (TECHNISCHE UNIVERSITÄT MÜNCHEN, priority 2022, published 2025)
